Measurements as given in US10456358B2, “Isoxazoline compositions and use thereof in the prevention or treatment of parasite infestations in animals” (Intervet Inc., priority 2013, dated 2019).

Legend:
[1] = Tolerability in hens in the efficacy study; format: in vivo; conditions: 0.5-2 mg fluralaner/kg BW via medicated drinking water
Description: Groups A-D (n=6) were treated with doses of 2, 1 and 0.5 mg fluralaner/kg BW once or 1 mg fluralaner/kg BW twice (0.5 mg/kg BW on 2 occasions).
On D0 (group D additionally on D7), the hens in groups A-D received fluralaner via medicated drinking water. Group E received un-medicated drinking water ad libitum.

[2] = Technological study: fluralaner concentration at drinking nipples of a poultry house water system; format: physicochemical
Description: The study was conducted in a commercial poultry house for approximately 36000 replacement chickens with 4 batteries each with 3 levels. 4 PVC water dead-end pipes, (78 m long) supplied water for each battery.
Drinking nipples (Big Dutchman types “screw nipples” and “Top”, equipped with a single-arm plastic drip cup) were fitted to the water pipes. In this facility the delivery of the concentrated composition to the drinking nipples using both a dosing pump system and a medication tank was evaluated. • a) Dosing Pump • The dosing pump and its stock solution container were installed in a water hose coming from the water supply pipe and ending in a water tank that was metered for […]. • The dosing pump was set for 5% injection rate. The stock solution container was filled with a total of 8.8 L (175×0.05 [5%]). • Once the container was filled, the calculated volume of 193 mL of the concentrated composition was poured into the container and subsequently stirred. • The dosing pump was connected to the water distribution pipe and the pipe system filled with the medicated water. • b) Medication Tank • The medication tank was filled with 175 L of tap water. • The calculated volume of 193 mL of the concentrated composition was poured into the container and subsequently stirred. • The medication tank was connected to the water distribution pipe and the pipe system filled with the medicated water.
No animals were present in the cages. Therefore the water lines were opened every 10 min to mimic a continuous (intermittent) drinking water flow. At each draining 7.3 L of medicated water was allowed to drain at the dead-end side of the pipe.
Samples of medicated water was taken from 6 drinking nipples: the first and last drinking nipple in a drinker line, and from 4 drinking nipples having an equal distance at pre-defined time points, with a maximum of 4 h and analysed for fluralaner concentration.

Cc1cc(C2=NOC(c3cc(Cl)cc(Cl)c3)(C(F)(F)F)C2)ccc1C(=O)NCC(=O)NCC(F)(F)F (centres unmarked) [fluralaner, 4-[5-(3,5-Dichlorophenyl)-5-trifluoromethyl-4,5-dihydroisoxazol-3-yl]-2-methyl-N-[(2,2,2-trifluoro-ethylcarbamoyl)-methyl]-benzamide]
tolerability [1]: well tolerated | Deviation of fluralaner concentration at the drinking nipple from nominal concentration (percent) ([2]; Dosing pump system, Nipple 1, T 30 min): −10% | Deviation of fluralaner concentration at the drinking nipple from nominal concentration (percent) ([2]; Dosing pump system, Nipple 1, T 60 min): −10% | Deviation of fluralaner concentration at the drinking nipple from nominal concentration (percent) ([2]; Dosing pump system, Nipple 1, T 120 min): −9% | Deviation of fluralaner concentration at the drinking nipple from nominal concentration (percent) ([2]; Dosing pump system, Nipple 1, T 180 min): −9% | Deviation of fluralaner concentration at the drinking nipple from nominal concentration (percent) ([2]; Dosing pump system, Nipple 1, T 240 min): −9% | Deviation of fluralaner concentration at the drinking nipple from nominal concentration (percent) ([2]; Dosing pump system, Nipple 2, T 30 min): −9% | Deviation of fluralaner concentration at the drinking nipple from nominal concentration (percent) ([2]; Dosing pump system, Nipple 2, T 60 min): −14% | Deviation of fluralaner concentration at the drinking nipple from nominal concentration (percent) ([2]; Dosing pump system, Nipple 2, T 120 min): −12% | Deviation of fluralaner concentration at the drinking nipple from nominal concentration (percent) ([2]; Dosing pump system, Nipple 2, T 180 min): −9% | Deviation of fluralaner concentration at the drinking nipple from nominal concentration (percent) ([2]; Dosing pump system, Nipple 2, T 240 min): −9% | Deviation of fluralaner concentration at the drinking nipple from nominal concentration (percent) ([2]; Dosing pump system, Nipple 3, T 30 min): −9% | Deviation of fluralaner concentration at the drinking nipple from nominal concentration (percent) ([2]; Dosing pump system, Nipple 3, T 60 min): −10% | Deviation of fluralaner concentration at the drinking nipple from nominal concentration (percent) ([2]; Dosing pump system, Nipple 3, T 120 min): −10% | Deviation of fluralaner concentration at the drinking nipple from nominal concentration (percent) ([2]; Dosing pump system, Nipple 3, T 180 min): −14% | Deviation of fluralaner concentration at the drinking nipple from nominal concentration (percent) ([2]; Dosing pump system, Nipple 3, T 240 min): −14% | Deviation of fluralaner concentration at the drinking nipple from nominal concentration (percent) ([2]; Dosing pump system, Nipple 4, T 30 min): −12% | Deviation of fluralaner concentration at the drinking nipple from nominal concentration (percent) ([2]; Dosing pump system, Nipple 4, T 60 min): −16% | Deviation of fluralaner concentration at the drinking nipple from nominal concentration (percent) ([2]; Dosing pump system, Nipple 4, T 120 min): −14% | Deviation of fluralaner concentration at the drinking nipple from nominal concentration (percent) ([2]; Dosing pump system, Nipple 4, T 180 min): −10% | Deviation of fluralaner concentration at the drinking nipple from nominal concentration (percent) ([2]; Dosing pump system, Nipple 4, T 240 min): −10% | Deviation of fluralaner concentration at the drinking nipple from nominal concentration (percent) ([2]; Dosing pump system, Nipple 5, T 30 min): −12% | Deviation of fluralaner concentration at the drinking nipple from nominal concentration (percent) ([2]; Dosing pump system, Nipple 5, T 60 min): −10% | Deviation of fluralaner concentration at the drinking nipple from nominal concentration (percent) ([2]; Dosing pump system, Nipple 5, T 120 min): −11% | Deviation of fluralaner concentration at the drinking nipple from nominal concentration (percent) ([2]; Dosing pump system, Nipple 5, T 180 min): −10% | Deviation of fluralaner concentration at the drinking nipple from nominal concentration (percent) ([2]; Dosing pump system, Nipple 5, T 240 min): −10% | Deviation of fluralaner concentration at the drinking nipple from nominal concentration (percent) ([2]; Dosing pump system, Nipple 6, T 30 min): −26% | Deviation of fluralaner concentration at the drinking nipple from nominal concentration (percent) ([2]; Dosing pump system, Nipple 6, T 60 min): −10% | Deviation of fluralaner concentration at the drinking nipple from nominal concentration (percent) ([2]; Dosing pump system, Nipple 6, T 120 min): −11% | Deviation of fluralaner concentration at the drinking nipple from nominal concentration (percent) ([2]; Dosing pump system, Nipple 6, T 180 min): −11% | Deviation of fluralaner concentration at the drinking nipple from nominal concentration (percent) ([2]; Dosing pump system, Nipple 6, T 240 min): −10% | Deviation of fluralaner concentration at the drinking nipple from nominal concentration (percent) ([2]; Medication tank system, Nipple 1, T 30 min): −5% | Deviation of fluralaner concentration at the drinking nipple from nominal concentration (percent) ([2]; Medication tank system, Nipple 1, T 60 min): −4% | Deviation of fluralaner concentration at the drinking nipple from nominal concentration (percent) ([2]; Medication tank system, Nipple 1, T 120 min): −4% | Deviation of fluralaner concentration at the drinking nipple from nominal concentration (percent) ([2]; Medication tank system, Nipple 1, T 180 min): −5% | Deviation of fluralaner concentration at the drinking nipple from nominal concentration (percent) ([2]; Medication tank system, Nipple 1, T 240 min): −10% | Deviation of fluralaner concentration at the drinking nipple from nominal concentration (percent) ([2]; Medication tank system, Nipple 2, T 30 min): −7% | Deviation of fluralaner concentration at the drinking nipple from nominal concentration (percent) ([2]; Medication tank system, Nipple 2, T 60 min): −5% | Deviation of fluralaner concentration at the drinking nipple from nominal concentration (percent) ([2]; Medication tank system, Nipple 2, T 120 min): −4% | Deviation of fluralaner concentration at the drinking nipple from nominal concentration (percent) ([2]; Medication tank system, Nipple 2, T 180 min): −5% | Deviation of fluralaner concentration at the drinking nipple from nominal concentration (percent) ([2]; Medication tank system, Nipple 2, T 240 min): −4% | Deviation of fluralaner concentration at the drinking nipple from nominal concentration (percent) ([2]; Medication tank system, Nipple 3, T 30 min): −5% | Deviation of fluralaner concentration at the drinking nipple from nominal concentration (percent) ([2]; Medication tank system, Nipple 3, T 60 min): −4% | Deviation of fluralaner concentration at the drinking nipple from nominal concentration (percent) ([2]; Medication tank system, Nipple 3, T 120 min): −4% | Deviation of fluralaner concentration at the drinking nipple from nominal concentration (percent) ([2]; Medication tank system, Nipple 3, T 180 min): −4% | Deviation of fluralaner concentration at the drinking nipple from nominal concentration (percent) ([2]; Medication tank system, Nipple 3, T 240 min): −4% | Deviation of fluralaner concentration at the drinking nipple from nominal concentration (percent) ([2]; Medication tank system, Nipple 4, T 30 min): −6% | Deviation of fluralaner concentration at the drinking nipple from nominal concentration (percent) ([2]; Medication tank system, Nipple 4, T 60 min): −5% | Deviation of fluralaner concentration at the drinking nipple from nominal concentration (percent) ([2]; Medication tank system, Nipple 4, T 120 min): −4% | Deviation of fluralaner concentration at the drinking nipple from nominal concentration (percent) ([2]; Medication tank system, Nipple 4, T 180 min): −4% | Deviation of fluralaner concentration at the drinking nipple from nominal concentration (percent) ([2]; Medication tank system, Nipple 4, T 240 min): −3% | Deviation of fluralaner concentration at the drinking nipple from nominal concentration (percent) ([2]; Medication tank system, Nipple 5, T 30 min): −8% | Deviation of fluralaner concentration at the drinking nipple from nominal concentration (percent) ([2]; Medication tank system, Nipple 5, T 60 min): −4% | Deviation of fluralaner concentration at the drinking nipple from nominal concentration (percent) ([2]; Medication tank system, Nipple 5, T 120 min): −4% | Deviation of fluralaner concentration at the drinking nipple from nominal concentration (percent) ([2]; Medication tank system, Nipple 5, T 180 min): −4% | Deviation of fluralaner concentration at the drinking nipple from nominal concentration (percent) ([2]; Medication tank system, Nipple 5, T 240 min): −6% | Deviation of fluralaner concentration at the drinking nipple from nominal concentration (percent) ([2]; Medication tank system, Nipple 6, T 30 min): −6% | Deviation of fluralaner concentration at the drinking nipple from nominal concentration (percent) ([2]; Medication tank system, Nipple 6, T 60 min): −6% | Deviation of fluralaner concentration at the drinking nipple from nominal concentration (percent) ([2]; Medication tank system, Nipple 6, T 120 min): −4% | Deviation of fluralaner concentration at the drinking nipple from nominal concentration (percent) ([2]; Medication tank system, Nipple 6, T 180 min): −5% | Deviation of fluralaner concentration at the drinking nipple from nominal concentration (percent) ([2]; Medication tank system, Nipple 6, T 240 min): −4% | fluralaner concentration in the drinking water over time and along the drinking water line ([2]; up to 4 hours, medication tank and dosing pump): remains constant over time and along the drinking water line
